19 molecules from ChEMBL document CHEMBL1687808, “LmrS is a multidrug efflux pump of the major facilitator superfamily from Staphylococcus aureus” (2010) can be followed below.

For orientation: inhibition means the relative decrease from the control value, in per cent. As usually defined, the MIC is the least concentration at which growth counts as inhibited.

Converted amounts (≈) assume the structure as drawn. The source made the active and inactive calls. No cut-off for these calls is given here.

The test system of test [1] is Escherichia coli. As to the kind of experiment: Inhibition of ethidium bromide accumulation in Escherichia coli KAM32 harboring pSP72 at 100 uM by fluorescence spectrophotometer. The format is functional, organism-based.
In test [2] the test system is Escherichia coli. As to the kind of experiment: Antibacterial activity against Escherichia coli KAM32 harboring pSP72 by broth microdilution method. The format is functional.
The subject of test [3] is Staphylococcus aureus. As to the kind of experiment: Inhibition of Staphylococcus aureus LmrS expressed in Escherichia coli KAM32 harboring pSP72 assessed as decrease of ethidium bromide efflux at 0.01 mM after 6 mins by fluorescence spectrophotometer relative to control.
Test [4] deals with Escherichia coli. Briefly: Ratio of MIC for Escherichia coli KAM32 harboring cloned pSP72 lmrS to MIC for Escherichia coli KAM32 harboring pSP72. The format is functional.
Test [5] concerns Escherichia coli. As to the kind of experiment: Antibacterial activity against Escherichia coli KAM32 harboring Staphylococcus aureus cloned pSP72 lmrS by broth microdilution method. The format is functional.
For test [6], the system named is Escherichia coli. Briefly: Antibacterial activity against Escherichia coli KAM32 harboring Staphylococcus aureus cloned pSP72 lmrS by broth microdilution method in presence of efflux pump inhibitor CCCP. It counts as functional. (In general: In broth dilution the organism is exposed to a series of concentrations in liquid medium.)
Test [7] has as its system Staphylococcus aureus. As to the kind of experiment: Inhibition of Staphylococcus aureus LmrS expressed in Escherichia coli KAM32 harboring pSP72 assessed as decrease of ethidium bromide accumulation at 100 uM by fluorescence spectrophotometer relative to control.

Regarding `N#CC(C#N)=NNc1cccc(Cl)c1` [CARBONYL CYANIDE M-CHLOROPHENYLHYDRAZONE], the inhibition result in the test with Escherichia coli [1] was “inactive”. This molecule also yielded a minimum inhibitory concentration (MIC) against Escherichia coli [2] of 8 µg/mL (≈ 39.1 µM). Moreover, in the test on Staphylococcus aureus [3], the inhibition stood at 40%.
With `O=C(N[C@H](CO)[C@H](O)c1ccc([N+](=O)[O-])cc1)C(Cl)Cl` [CHLORAMPHENICOL], in the test on Escherichia coli [4], the MIC ratio was found to be 8. Moreover, the MIC was 3.13 µg/mL (≈ 9.69 µM) with Escherichia coli [5] and 0.39 µg/mL (≈ 1.21 µM) in the test with Escherichia coli [2].
As for `CC[C@H]1OC(=O)[C@H](C)[C@@H](O[C@H]2C[C@@](C)(OC)[C@@H](O)[C@H](C)O2)[C@H](C)[C@@H](O[C@@H]2O[C@H](C)C[C@H](N(C)C)[C@H]2O)[C@](C)(O)C[C@@H](C)C(=O)[C@H](C)[C@@H](O)[C@]1(C)O` [ERYTHROMYCIN], in the test with Escherichia coli [4], the MIC ratio worked out at 8.2. Also, the figures for the MIC with Escherichia coli [5] and with Escherichia coli [2] were 15.6 µg/mL (≈ 21.3 µM) and 1.9 µg/mL (≈ 2.59 µM), respectively.
In the case of `CS(=O)(=O)c1ccc([C@@H](O)[C@@H](CF)NC(=O)C(Cl)Cl)cc1` [FLORFENICOL], the MIC ratio in the test with Escherichia coli [4] came out at 8. In addition, the results for the MIC in the test with Escherichia coli [5] and in the test on Escherichia coli [2] were 3.13 µg/mL (≈ 8.74 µM) and 0.39 µg/mL (≈ 1.09 µM), respectively.
Take `CC(=O)O[C@H]1C[C@@]2(C)[C@@H](C[C@@H](O)[C@H]3[C@@]4(C)CC[C@@H](O)[C@@H](C)[C@@H]4CC[C@@]32C)/C1=C(\CCC=C(C)C)C(=O)O` [FUSIDIC ACID]: the MIC ratio in the test on Escherichia coli [4] is 8. The MIC was determined as 250 µg/mL (≈ 484 µM) against Escherichia coli [5], 31.2 µg/mL (≈ 60.5 µM) against Escherichia coli [2] and 62.5 µg/mL in the test with Escherichia coli [6].
Turning to `COc1c(N2CCNC(C)C2)c(F)cc2c(=O)c(C(=O)O)cn(C3CC3)c12` (stereo unspecified) [GATIFLOXACIN], in the test on Escherichia coli [4], the MIC ratio turned out to be 4.1. Besides, the MIC in the test with Escherichia coli [5] stood at 0.08 µg/mL (≈ 0.213 µM); in the test on Escherichia coli [2], 0.02 µg/mL (≈ 0.0533 µM).
With `CC[n+]1c(-c2ccccc2)c2cc(N)ccc2c2ccc(N)cc21.[Br-]` [HOMIDIUM BROMIDE], the MIC ratio in the test with Escherichia coli [4] is 8. Moreover, the figures for the MIC with Escherichia coli [5] and against Escherichia coli [2] were 62.5 µg/mL and 7.8 µg/mL, respectively. Also, the inhibition with Staphylococcus aureus [7] was 30%.
For the molecule `NC[C@H]1O[C@H](O[C@H]2[C@H](O)[C@@H](O[C@H]3O[C@H](CO)[C@@H](O)[C@H](N)[C@H]3O)[C@H](N)C[C@@H]2N)[C@H](O)[C@@H](O)[C@@H]1O` [KANAMYCIN], the MIC ratio in the test with Escherichia coli [4] was 8. Also, the results for the MIC against Escherichia coli [5] and against Escherichia coli [2] were 125 µg/mL (≈ 258 µM) and 15.6 µg/mL (≈ 32.3 µM), respectively.
In the same order, the values of `CCC[C@@H]1C[C@@H](C(=O)N[C@@H]([C@H]2O[C@H](SC)[C@H](O)[C@@H](O)[C@H]2O)[C@@H](C)O)N(C)C1` [LINCOMYCIN] are 4, 125 µg/mL (≈ 307 µM) and 31.2 µg/mL (≈ 76.9 µM).
In the same order, the values of `CC(=O)NC[C@H]1CN(c2ccc(N3CCOCC3)c(F)c2)C(=O)O1` [LINEZOLID] are 16, 31.2 µg/mL (≈ 92.6 µM) and 1.95 µg/mL (≈ 5.78 µM).
The corresponding values for `CN(C)[C@@H]1C(O)=C(C(N)=O)C(=O)[C@@]2(O)C(O)=C3C(=O)c4c(O)cccc4[C@@](C)(O)[C@H]3[C@H](O)[C@@H]12` [OXYTETRACYCLINE] are 4, 0.39 µg/mL (≈ 0.847 µM) and 0.1 µg/mL (≈ 0.217 µM).
In the case of `COC(=O)[C@H]1[C@H]2C[C@@H]3c4[nH]c5cc(OC)ccc5c4CCN3C[C@H]2C[C@@H](OC(=O)c2cc(OC)c(OC)c(OC)c2)[C@@H]1OC` [RESERPINE], in the test with Escherichia coli [2], the lowest concentration to inhibit growth (MIC) was 62 µg/mL (≈ 102 µM).
Consider `CO[C@H]1/C=C/O[C@@]2(C)Oc3c(C)c(O)c4c(O)c(c(/C=N/N5CCN(C)CC5)c(O)c4c3C2=O)NC(=O)/C(C)=C\C=C\[C@H](C)[C@H](O)[C@@H](C)[C@@H](O)[C@@H](C)[C@H](OC(C)=O)[C@@H]1C` [RIFAMPIN], for which, in the test on Escherichia coli [4], the MIC ratio came out at 2.1. The MIC in the test with Escherichia coli [5] came out at 3.9 µg/mL (≈ 4.74 µM); against Escherichia coli [2], 1.9 µg/mL (≈ 2.31 µM).
The corresponding values for `CCCCCCCCCCCCOS(=O)(=O)[O-].[Na+]` [SODIUM LAURYL SULFATE] are 8, 250 µg/mL and 31.2 µg/mL.
The corresponding values for `CN[C@@H]1[C@H](O[C@H]2[C@H](O[C@H]3[C@H](O)[C@@H](O)[C@H](N=C(N)N)[C@@H](O)[C@@H]3N=C(N)N)O[C@@H](C)[C@]2(O)C=O)O[C@@H](CO)[C@H](O)[C@H]1O` [STREPTOMYCIN] are 8, 6.25 µg/mL (≈ 10.7 µM) and 0.78 µg/mL (≈ 1.34 µM).
The corresponding values for `COc1cc(NS(=O)(=O)c2ccc(N)cc2)nc(OC)n1` [SULFADIMETHOXINE] are 2, 9.76 µg/mL (≈ 31.4 µM) and 4.88 µg/mL (≈ 15.7 µM).
On to `[Cl-].c1ccc([P+](c2ccccc2)(c2ccccc2)c2ccccc2)cc1` [TETRAPHENYLPHOSPHONIUM CHLORIDE], for which the MIC ratio in the test on Escherichia coli [4] came to 16. The values for the MIC with Escherichia coli [5] and in the test on Escherichia coli [2] were 156 µg/mL and 9.76 µg/mL, respectively.
In the same order, the values of `COc1cc(Cc2cnc(N)nc2N)cc(OC)c1OC` [TRIMETHOPRIM] are 8.2, 0.16 µg/mL (≈ 0.551 µM) and 0.02 µg/mL (≈ 0.0689 µM).
Turning to Cetyltrimethylammonium bromide, the MIC with Escherichia coli [5] is 7.8 µg/mL; against Escherichia coli [2], 3.9 µg/mL.
